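Values below derive from 48-hour exposures of cells grown in 96-well plates, with endpoints linearly interpolated between the two concentrations bracketing the appropriate inhibition level. Here, GI50 denotes the concentration required for 50% inhibition of growth.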 Calls of active or inactive are those of the source. Cut-off read from the data, not from the text of the source: active = GI50 up to about 1.1 µM and inactive = higher.
What was measured:
Assay in all cases: growth of human tumour cells (NCI), 48 h
786-0 = test system: 786-0
A549 = test system: A549
ACHN = test system: ACHN
CCRF-CEM = test system: CCRF-CEM
COLO 205 = test system: COLO 205
DLD-1 = test system: DLD-1
DMS-114 = test system: DMS-114
DMS-273 = test system: DMS-273
EKVX = test system: EKVX
HCC 2998 = test system: HCC 2998
HCT-116 = test system: HCT-116
HCT-15 = test system: HCT-15
HL-60 = test system: HL-60
HOP-62 = test system: HOP-62
HT-29 = test system: HT-29
IGROV-1 = test system: IGROV-1
K562 = test system: K562
KM12 = test system: KM12
LOX IMVI = test system: LOX IMVI
LXFL 529 = test system: LXFL 529
M14 = test system: M14
M19-MEL = test system: M19-MEL
MOLT-4 = test system: MOLT-4
NCI-H23 = test system: NCI-H23
NCI-H460 = test system: NCI-H460
OVCAR-3 = test system: OVCAR-3
OVCAR-4 = test system: OVCAR-4
OVCAR-5 = test system: OVCAR-5
OVCAR-8 = test system: OVCAR-8
RXF 393 = test system: RXF 393
SF-268 = test system: SF-268
SF-295 = test system: SF-295
SF-539 = test system: SF-539
SK-MEL-28 = test system: SK-MEL-28
SK-MEL-2 = test system: SK-MEL-2
SK-MEL-5 = test system: SK-MEL-5
SN12C = test system: SN12C
SNB-19 = test system: SNB-19
SNB-75 = test system: SNB-75
SNB-78 = test system: SNB-78
SR = test system: SR
SW-620 = test system: SW-620
TK-10 = test system: TK-10
U-251 = test system: U-251
UACC-62 = test system: UACC-62
XF498 = test system: XF498
A498 = test system: A498
CAKI-1 = test system: CAKI-1
KM-20L2 = test system: KM-20L2
Malme-3M = test system: Malme-3M
NCI-H226 = test system: NCI-H226
NCI-H522 = test system: NCI-H522
RPMI-8226 = test system: RPMI-8226
SK-OV-3 = test system: SK-OV-3
UACC-257 = test system: UACC-257
UO-31 = test system: UO-31

C/C=C(\NC(=O)C(CCCCN)NC(=O)C(C)NC(=O)C1CSC(C)C(NC(=O)C2CSCC(NC(=O)C(C)NC(=O)C(N)C(C)CC)C(=O)NC(CCCCN)C(=O)NC(Cc3ccccc3)C(=O)NC(CC(C)C)C(=O)N2)C(=O)N2CCCC2C(=O)NCC(=O)N1)C(=O)NCC(=O)NC1CSCC2NC(=O)C(Cc3ccc(O)cc3)NC(=O)C(CSC=CNC2=O)NC(=O)C(CC(N)=O)NC(=O)C(Cc2ccccc2)NC1=O (stereo unspecified)
GI50 (786-0): 35.6 µM (inactive)
GI50 (A549): > 100 µM (inactive)
GI50 (ACHN): 65 µM (inactive)
GI50 (CCRF-CEM): > 100 µM (inactive)
GI50 (COLO 205): > 100 µM (inactive)
GI50 (DLD-1): > 100 µM (inactive)
GI50 (DMS-114): > 100 µM (inactive)
GI50 (DMS-273): 57.1 µM (inactive)
GI50 (EKVX): 52.2 µM (inactive)
GI50 (HCC 2998): > 100 µM (inactive)
GI50 (HCT-116): > 100 µM (inactive)
GI50 (HCT-15): > 100 µM
GI50 (HL-60): > 100 µM (inactive)
GI50 (HOP-62): < 0.01 µM (active)
GI50 (HT-29): > 100 µM (inactive)
GI50 (IGROV-1): > 100 µM (inactive)
GI50 (K562): > 100 µM (inactive)
GI50 (KM12): 66.2 µM (inactive)
GI50 (LOX IMVI): > 100 µM (inactive)
GI50 (LXFL 529): > 100 µM (inactive)
GI50 (M14): > 100 µM (inactive)
GI50 (M19-MEL): 67.8 µM (inactive)
GI50 (MOLT-4): > 100 µM (inactive)
GI50 (NCI-H23): > 100 µM (inactive)
GI50 (NCI-H460): 75.3 µM (inactive)
GI50 (OVCAR-3): > 100 µM (inactive)
GI50 (OVCAR-4): > 100 µM (inactive)
GI50 (OVCAR-5): > 100 µM (inactive)
GI50 (OVCAR-8): > 100 µM (inactive)
GI50 (RXF 393): > 100 µM (inactive)
GI50 (SF-268): 33.4 µM (inactive)
GI50 (SF-295): > 100 µM (inactive)
GI50 (SF-539): > 100 µM (inactive)
GI50 (SK-MEL-28): 78.3 µM (inactive)
GI50 (SK-MEL-2): > 100 µM (inactive)
GI50 (SK-MEL-5): 19.6 µM (inactive)
GI50 (SN12C): > 100 µM (inactive)
GI50 (SNB-19): > 100 µM (inactive)
GI50 (SNB-75): 20.3 µM (inactive)
GI50 (SNB-78): > 100 µM (inactive)
GI50 (SR): > 100 µM (inactive)
GI50 (SW-620): > 100 µM (inactive)
GI50 (TK-10): > 100 µM (inactive)
GI50 (U-251): > 100 µM (inactive)
GI50 (UACC-62): 37.6 µM (inactive)
GI50 (XF498): > 100 µM (inactive)

COC(=O)C1CC2C=CC=CC(=O)C2(C)C1 (stereo unspecified)
GI50 (786-0): 36.6 µM (inactive)
GI50 (A498): 36.2 µM (inactive)
GI50 (A549): > 100 µM (inactive)
GI50 (ACHN): 59.6 µM (inactive)
GI50 (CAKI-1): > 100 µM (inactive)
GI50 (CCRF-CEM): 21.6 µM (inactive)
GI50 (COLO 205): 76.9 µM (inactive)
GI50 (DLD-1): 15.6 µM (inactive)
GI50 (DMS-114): 40.4 µM (inactive)
GI50 (EKVX): > 100 µM (inactive)
GI50 (HCT-116): 28 µM (inactive)
GI50 (HCT-15): 31 µM
GI50 (HL-60): 25.8 µM (inactive)
GI50 (HOP-62): > 100 µM (inactive)
GI50 (HT-29): 40 µM (inactive)
GI50 (IGROV-1): > 100 µM (inactive)
GI50 (K562): 30.7 µM (inactive)
GI50 (KM-20L2): > 100 µM (inactive)
GI50 (KM12): 45.7 µM (inactive)
GI50 (LOX IMVI): 53.3 µM (inactive)
GI50 (LXFL 529): 31.2 µM (inactive)
GI50 (M14): 30.5 µM (inactive)
GI50 (M19-MEL): 55.5 µM (inactive)
GI50 (MOLT-4): 25.6 µM (inactive)
GI50 (Malme-3M): 49.7 µM (inactive)
GI50 (NCI-H226): 56.4 µM (inactive)
GI50 (NCI-H23): 44.3 µM (inactive)
GI50 (NCI-H460): 41.8 µM (inactive)
GI50 (NCI-H522): > 10 µM (inactive)
GI50 (OVCAR-3): > 100 µM (inactive)
GI50 (OVCAR-4): 83.2 µM (inactive)
GI50 (OVCAR-5): > 100 µM (inactive)
GI50 (OVCAR-8): 41.1 µM (inactive)
GI50 (RPMI-8226): 22.6 µM (inactive)
GI50 (SF-268): 37.3 µM (inactive)
GI50 (SF-295): 53.6 µM (inactive)
GI50 (SF-539): > 100 µM (inactive)
GI50 (SK-MEL-2): 59.6 µM (inactive)
GI50 (SK-MEL-5): 51.1 µM (inactive)
GI50 (SK-OV-3): > 100 µM (inactive)
GI50 (SN12C): 81.1 µM (inactive)
GI50 (SNB-19): 76.7 µM (inactive)
GI50 (SNB-78): 30.7 µM (inactive)
GI50 (SR): 27.8 µM (inactive)
GI50 (SW-620): 27.2 µM (inactive)
GI50 (TK-10): > 100 µM (inactive)
GI50 (U-251): > 100 µM (inactive)
GI50 (UACC-257): 38.7 µM (inactive)
GI50 (UACC-62): 39.9 µM (inactive)
GI50 (UO-31): > 100 µM (inactive)
